Entries after “also recorded” stand apart in the source; their conditions may differ.
System: Tlx3 positive layer 5 IT neurons
Test: Widefield calcium imaging of dorsal cortex in Tlx3-Cre x Ai148 mice (GCaMP6 in layer 5 IT neurons), before and after drug injection
Format: in vivo
Conditions: for long-range activity correlations (drug induced difference, normalized to naïve): region pairs above 0.9 of the bregma-lambda distance; for Pearson's correlation of activity between cortical regions (all region pairs): single injection, after vs naïve
Text: All animal procedures were approved by and carried out in accordance with guidelines of the Veterinary Department of the Canton Basel-Stadt, Switzerland. The mice used in this study were kept on a C57BL/6 background and were of the following genotype: 6 C57/Bl6 (Charles River Laboratories), 4 Emx1-Cre mice (Gorski et al., 2002), 4 Cux2-CreERT2 (Franco et al., 2012), 7 Scnn1a-Cre (Madisen et al., 2010), 15 Tlx3-Cre(PL56) (Gerfen et al., 2013), 3 Ntsr1-Cre (Gong et al., 2007), 2 PV-Cre (Hippenmeyer et al., 2005), 6 VIP-Cre (Taniguchi et al., 2011), 5 Sst-Cre (Taniguchi et al., 2011) were used for widefield calcium imaging. Ai148 ((Daigle et al., 2018), Jackson Laboratories, stock #030328) mice were used as breeders to drive GCaMP6f in Cre positive neurons. 7 C57BL/6 were used for experiments controlling for hemodynamic responses. To induce expression of Cre in the Cux2-CreERT2 line, mice were kept for at least 1 week on Tamoxifen containing food (Envigo, 400 mg Tamoxifen per kg of food) as their only food source. Mice were group housed in a vivarium (light/dark cycle: 12/12 hours). Experimental mice used were of both sexes.
For all surgical procedures, mice were anesthetized using a mixture of Fentanyl (0.05 mg/kg; Actavis), Midazolam (5.0 mg/kg; Dormicum, Roche) and Medetomidine (0.5 mg/kg; Domitor, Orion). In a subset of mice (6 C57/Bl6, 4 Emx1-Cre, 4 Sst-Cre mice) we injected an AAV coated with the PHP.eb capsid (Chan et al., 2017) retroorbitally ([…] each eye of at least 10^13 GC/ml) to drive expression pan-neuronally or cell type specificly of GCaMP6 under either the Ef1α or hSyn promoter. For hemodynamic response control experiments, the inventors used an AAV PHP.eb Ef1α-GFP to pan-neuronally transfect GFP. To improve optical access to the cortex, they implanted crystal skull cranial windows (Kim et al., 2016). Prior to removing the skull plate overlying dorsal cortex, they zeroed bregma with a digital readout attached to the stereotax for later use as a landmark. Superglue (Pattex) was used to close the craniotomy. […] A custom-machined titanium head bar was attached to the skull using dental cement (Paladur, Heraeus). An epifluorescence overview image was taken to mark reference points on the dorsal cortical surface. Anesthesia was antagonized by an intraperitoneal injection of a mixture of Flumazenil (0.5 mg/kg; Anexate, Roche) and Atipamezole (2.5 mg/kg; Antisedan, Orion Pharma), analgesia was achieved by injecting Buprenorphine (0.1 mg/kg; Reckitt Benckiser Healthcare (UK) Ltd.) and Metacam (5 mg/kg; Boehringer Ingelheim), and mice were subsequently returned to their home cage. Imaging commenced not before 1 week after headbar implantation and not before at least 3 weeks had passed in the cases in which AAVs had been used to transfect neurons. Clozapine (Sigma), Aripiprazole (Otsuka Pharmaceutical), Haloperidol (Janssen) and Amphetamine (Hänseler) were intraperitoneally injected at […] body weight, respectively.
For all experiments we used a virtual reality setup as previously described (Leinweber et al., 2014). Mice were head-fixed and free to run on a spherical, air supported Styrofoam ball. Rotation of the ball was coupled to movement in a virtual reality environment. A virtual corridor was projected (Samsung SP-F10M) onto a toroidal screen positioned in front of the mice covering approximately 240 degrees horizontally and 100 degrees vertically of the field of view. […]

| SMILES | long-range activity correlations (drug induced difference, normalized to naïve) | short-range activity correlations (drug induced difference, normalized to naïve) (region pairs below 0.9 of the bregma-lambda distance) | Pearson's correlation of activity between cortical regions (all region pairs) |
| --- | --- | --- | --- |
| O=C1CCc2ccc(OCCCCN3CCN(c4cccc(Cl)c4Cl)CC3)cc2N1 [Aripiprazole] | significantly reduced | significantly reduced | mimicked the decorrelation of dorsal cortex activity observed with Clozapine; also recorded: decorrelation of the activity patterns of Tlx3 positive layer 5 IT neurons was preserved |
| O=C(CCCN1CCC(O)(c2ccc(Cl)cc2)CC1)c1ccc(F)cc1 [Haloperidol] | reduced long-range activity correlations |  | mimicked the decorrelation of dorsal cortex activity observed with Clozapine; also recorded: decorrelation of the activity patterns of Tlx3 positive layer 5 IT neurons was preserved |
| CC(N)Cc1ccccc1 (stereo not drawn) [Amphetamine] |  |  | did not affect activity correlations; also recorded: absent |

Reference: patent US20250099033A1, “HIGH THROUGHPUT SCREENING METHOD FOR THE IDENTIFICATION OF PS[…]” (FRIEDRICH MIESCHER INSTITUTE FOR BIOMEDICAL RESEARCH, priority 2022, published 2025)
